Laboratory results taken from article PMC8508960, “Ruthenium Half-Sandwich Type Complexes with Bidentate Monosaccharide Ligands Show Antineoplastic Activity in Ovarian Cancer Cell Models through Reactive Oxygen Species Production” (International Journal of Molecular Sciences, 2021).
Several values for one entry are separate records, joined by “and”; a condition that tells them apart may be missing. Equal values may be shown once. Entries after “also recorded” stand apart in the source; their conditions may differ.

Experiments:
[1] = tested on: MCF7 cells (breast cancer); assay: SRB proliferation assay (48 h) on MCF7 cells; assay type: cell-based; conditions: nonlinear regression
Method: (§1) Cells were cultured under standard cell culture conditions, 37 °C, 5% CO2, humidified atmosphere. A2780 cells were cultured in RMPI 1640 medium supplemented with 10% fetal calf serum, 2 mM glutamine, and 1% penicillin–streptomycin (Sigma-Aldrich). ID8 cells were cultured in high-glucose DMEM (4.5 g/L glucose) supplemented with 4% fetal calf serum, 2 mM glutamine, 1% penicillin–streptomycin (Sigma-Aldrich), and 1% ITS supplement (Sigma-Aldrich I3146). U251 cells were maintained in MEM (Sigma-Aldrich), 10% fetal bovine serum (Sigma-Aldrich), 1% penicillin/streptomycin (Invitrogene), and 2 mM glutamine. MCF7 cells were maintained in MEM (Sigma-Aldrich), 10% fetal bovine serum (Sigma-Aldrich), 1% penicillin/streptomycin (Invitrogen, Waltham, MA, USA), and 2 mM glutamine. Capan2 cells were maintained in MEM (Sigma-Aldrich), 10% fetal bovine serum (Sigma-Aldrich), 1% penicillin/streptomycin (Invitrogen), and 2 mM glutamine. Human primary dermal fibroblasts were cultured in low-glucose DMEM (1 g/L glucose) supplemented with 20% fetal calf serum, 2 mM glutamine, and 1% penicillin–streptomycin (Sigma-Aldrich).
(§2) The SRB accumulation assay assesses protein content in a sample, and it was used to assess cell proliferation. The SRB accumulation assay was performed similarly to [68]. Cells were seeded in 96-well plates. The next day, cells were treated with the compounds for 48 h in the concentrations indicated in a cell incubator. At the end of treatment, cells were fixed with 10% trichloroacetic acid (TCA). Fixed cells were stained with SRB (0.4% m/v dissolved in 1% acetic acid) for 60 min. Fixed cells were washed in 1% acetic acid three times; acetic acid was removed, and cells were left to dry. Protein-bound SRB was released by adding 100 µL of 10 mM Tris base. Plates were measured in a plate photometer (Thermo Scientific Multiscan GO spectrophotometer, Waltham, MA, USA) at 540 nm. On each plate, wells were designed to contain untreated cells. In calculations, the readings for these wells were considered as 1, and all readings were expressed relative to these values.
(§3) Statistical analysis was performed using Graphpad Prism version 8.0.1. Values were tested for normal distribution using the D’Agostino and Pearson normality test. When necessary, values were log-normalized or were normalized using the Box–Cox normalization method, as indicated in the figure captions. Nonlinear regression was performed using the built-in “[Inhibitor] vs. response—variable slope (four parameters), least square fit” utility of Graphpad that yielded IC50 and Hill slope values.

[2] = tested on: A2780 human ovarian carcinoma cells; assay: SRB proliferation assay (48 h) on A2780 cells; assay type: cell-based; conditions: for cytostatic activity in long-term SRB assay (in words): A2780 cells, 100–0.0017 µM; for Hill slope (span over cell lines): SRB curves, A2780 and ID8 cells; for A2780 Hill Slope / IC50: SRB, nonlinear regression, N/A = could not be calculated/had no effect
Method: as §1, §2, §3

A2780 cells [3] = assay: SRB assay on A2780 cells with or without 3 µM rucaparib; assay type: cell-based, human; conditions: 48 h, vehicle (no rucaparib)
Method: as §2, §3

A2780 cells [4] = assay: Annexin V-FITC, PI double staining (flow cytometry); assay type: cell-based, human; conditions: concentration corresponding to IC50, 2 h, 4 h or 48 h
Method: Annexin V–PI double staining was applied to assess apoptotic and necrotic cell death similar to [37, 38, 69]. A2780 cells were treated with the indicated compounds at the concentration corresponding to their IC50 value for 2, 4, and 48 h. The 4 and 48 h time points correspond to the time points for the MTT and SRB assays, while the 2 h time point reflects the optimum time point for the detection of apoptotic or necrotic cell death. Quadrants were set on the basis of the FITC and PI values observed for the vehicle-treated cells.

A2780 cells [5] = assay: SRB assay on A2780 cells with antioxidant cotreatment (GSH, NAC, MitoTEMPO, vitamin E, Trolox); assay type: cell-based, human; conditions: 48 h
Method: as §2

A2780 cells [6] = assay: Western blotting of 4-hydroxy-nonenal (4HNE), oxidative stress marker; assay type: cell-based, human; conditions: concentration corresponding to IC50, 48 h
Method: The preparation of protein extracts, the separation of protein extracts in SDS-polyacrylamide gel electrophoresis, and the subsequent Western blotting were performed as described in [70] using the antibodies in Table 4. Enhanced chemiluminescence was developed using ChemiDoc Imager, (Bio-Rad, Hercules, CA, USA). Densitometry was performed using Image Lab Touch Software, Bio-Rad, Hercules, CA, USA).

[7] = Determination of the distribution coefficients (logD), n-octanol/PBS; assay type: physicochemical; conditions: n-octanol / PBS pH = 7.40
Method: Prior to the experiments, n-octanol was saturated with aqueous PBS solution (pH = 7.40) and vice versa. The corresponding complex (approximately 0.2–0.3 mg) was dissolved in a mixture of 2.50 mL of pre-saturated n-octanol and 2.50 mL of pre-saturated PBS buffer, and the mixture was vigorously stirred for 3 days. According to the NMR stability measurements, this time was necessary to reach equilibrium between the various ionic complex species. Due to the lipophilic/hydrophilic character of the complexes, those with benzoyl protection or the non-sugar derivative could mostly be found in the n-octanol, while the acetyl and non-protected complexes could be found in the aqueous PBS phase. The appropriate separated solution was centrifuged (ScanSpeed 406G instrument, 4000 RPM for 5 min), and the absorption of the “stock solution” was measured (VWR UV-1600PC Spectrophotometer, 270–420 nm). Then 2.00 mL of stock solution was stirred vigorously with 16.00 mL of pre-saturated, clean n-octanol or PBS solution. After 1 day, the phases were separated and centrifuged, and the absorption of the solution was measured again. From the absorption difference of the stock solutions, the distribution coefficient (D) was calculated according to the previously described formulae [66].

[8] = tested on: human primary skin fibroblasts; assay: MTT reduction assay (4 h, rapid toxicity) on primary fibroblasts; assay type: cell-based
Method: as §1
(§4) The MTT reduction assay assesses the activity of mitochondrial complex I, and it was used to assess rapid toxicity. The MTT reduction assay was performed similarly to [67]. Cells were seeded in 96-well plates. The next day, cells were treated with the compounds for 4 h in the concentrations indicated in a cell incubator. At the end of treatment, MTT was added in 0.5 mg/mL final concentration, and cells were incubated at 37 °C in a cell incubator. Then, culture media was removed, the reduced MTT dye was resolved in dimethyl sulfoxide (DMSO), and plates were measured in a plate photometer (Thermo Scientific Multiscan GO spectrophotometer, Waltham, MA, USA) at 540 nm. On each plate, wells were designed to contain untreated/vehicle-treated cells. In calculations, the readings for these wells were considered as 1, and all readings were expressed relative to these values.

[9] = tested on: human primary skin fibroblasts; assay: SRB proliferation assay (48 h) on primary fibroblasts; assay type: cell-based; conditions: for effect in long-term SRB assay (in words) / effect on SRB signal at 100 µM: primary human fibroblasts
Method: as §1, §2, §3

[10] = tested on: U251 cells (glioblastoma model); assay: SRB proliferation assay (48 h) on U251 cells; assay type: cell-based; conditions: nonlinear regression
Method: as §1, §2, §3

[11] = tested on: A2780 human ovarian carcinoma cells; assay: MTT reduction assay (4 h, rapid toxicity) on A2780 cells; assay type: cell-based; conditions: for effect on MTT signal above 10 µM: above 10 µM concentration
Method: as §1, §4

ID8 cells [12] = assay: SRB proliferation assay (48 h) on ID8 cells; assay type: cell-based; conditions: for cytostatic activity in long-term SRB assay (in words): ID8 cells; for IC50 / ID8 Hill Slope: SRB, nonlinear regression, N/A = could not be calculated/had no effect
Method: as §1, §2, §3

[13] = tested on: Capan2 (pancreatic adenocarcinoma); assay: SRB proliferation assay (48 h) on Capan2 cells; assay type: cell-based; conditions: nonlinear regression
Method: as §1, §2, §3

ID8 cells [14] = assay: MTT reduction assay (4 h, rapid toxicity) on ID8 cells; assay type: cell-based; conditions: for effect on MTT signal above 10 µM: above 10 µM concentration
Method: as §1, §4

[15] = SRB, nonlinear regression, N/A = could not be calculated/had no effect

Compound	IC50 [1]	MCF7 Hill Slope [1]	cytostatic activity in long-term SRB assay (in words) [2]	Hill slope (span over cell lines) [2]	A2780 Hill Slope [2]	IC50 [2]	IC50 (A2780 cells [3])	proportions of PI-positive, annexin V-positive and double-positive cells (A2780 cells [4])	effect of GSH and NAC cotreatment on the cytostatic effects of the complex (A2780 cells [5])	effect of MitoTEMPO on the cytostatic effects of the complex (A2780 cells [5])	expression of oxidative stress marker 4-hydroxy-nonenal (4HNE) (A2780 cells [6])	logD [7]	effect in short-term MTT assay, rapid toxicity (in words) [8]	IC50 [10]	U251 Hill Slope [10]	effect in short-term MTT assay, rapid toxicity (in words) [11]	cytostatic activity in long-term SRB assay (in words) (ID8 cells [12])	IC50 (ID8 cells [12])	ID8 Hill Slope (ID8 cells [12])	Capan2 Hill Slope [13]	also measured
Cc1ccc(C(C)C)cc1.F[P-](F)(F)(F)(F)F.O=C(OCC1OC(c2n[n+]3c(o2)-c2cccc[n+]2[Ru-]3[Cl])C(OC(=O)c2ccccc2)C(OC(=O)c2ccccc2)C1OC(=O)c1ccccc1)c1ccccc1 (mixture of isomers) [Ru-4]	3.74 µM	2.01	cytostatic properties	2–3	2.62	6.19 µM	6.18 µM	did not largely increase	attenuated the cytostatic effects	did not modulate the effects	increase in the expression	2.41	no effect	4.17 µM	2.46	cytostatic properties	cytostatic	5.66 µM	3.04	1.81	effect in long-term SRB assay (in words) [9]: no effect; also recorded: no activity; IC50 [13]: 3.27 µM
Cc1ccc(C(C)C)cc1.F[P-](F)(F)(F)(F)F.O=C(OCC1OC(n2cc(-c3ccccn3)nn2)C(OC(=O)c2ccccc2)C(OC(=O)c2ccccc2)C1OC(=O)c1ccccc1)c1ccccc1.[Cl][Ru+] (mixture of isomers) [Ru-2a]	1.29 µM	1.85	cytostatic properties	2–3	1.95	0.9 µM	1.38 µM	did not largely increase	attenuated the cytostatic effects	did not modulate the effects	increase in the expression	2.85	no effect	2.82 µM	1.75	cytostatic properties	cytostatic	1.5 µM and 1.53 µM	2.50	2.43	effect on MTT signal above 10 µM (ID8 cells [14]): reduced the MTT signal; Fibroblast Hill Slope [9, 15]: 0.78; effect on SRB signal at 100 µM [9]: reduced the SRB signal; effect on MTT signal above 10 µM [11]: reduced the MTT signal; IC50 [13]: 2.18 µM
Cc1ccc(C(C)C)cc1.F[P-](F)(F)(F)(F)F.O=C(OC1COC(c2n[n+]3c(o2)-c2cccc[n+]2[Ru-]3[Cl])C(OC(=O)c2ccccc2)C1OC(=O)c1ccccc1)c1ccccc1 (mixture of isomers) [Ru-6]	6.69 µM	2.13	cytostatic properties	2–3	3.74	8.54 µM	6.83 µM	did not largely increase	attenuated the cytostatic effects	did not modulate the effects	increase in the expression	2.04	no effect	6.61 µM	2.13	cytostatic properties	cytostatic	6.76 µM	3.59	1.66	effect on MTT signal at 100 µM (ID8 cells [14]; 100 µM, Ru-4: not statistically significant): reduced the MTT signal; Fibroblast Hill Slope [9, 15]: 3.52; IC50 ([9]; SRB, nonlinear regression, N/A = could not be calculated/had no effect, read-out: Fibroblast IC50): 24.6 µM; effect on SRB signal at 100 µM [9]: reduced the SRB signal; IC50 [13]: 4.97 µM
Cc1ccc(C(C)C)cc1.F[P-](F)(F)(F)(F)F.O=C(OCC1OC(c2nnc(-c3ccccn3)o2)C(OC(=O)c2ccccc2)C(OC(=O)c2ccccc2)C1OC(=O)c1ccccc1)c1ccccc1.[Cl][Ru+] (mixture of isomers) [Ru-8]	3.75 µM	2.06	cytostatic properties	2–3	3.50	4.27 µM	4.17 µM	did not largely increase	attenuated the cytostatic effects	did not modulate the effects	increase in the expression	2.44	no effect	4.49 µM	2.50	cytostatic properties	cytostatic	7.94 µM	3.31	1.66	effect on MTT signal above 10 µM (ID8 cells [14]): reduced the MTT signal; effect in long-term SRB assay (in words) [9]: no effect; effect on MTT signal above 10 µM [11]: reduced the MTT signal; IC50 [13]: 3.82 µM
